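A five-concentration, 48-hour dose response in 96-well plates underlies each endpoint, interpolated linearly between surrounding concentrations. The concentration for full growth arrest is given as TGI.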
Assays:
Assay in all cases: NCI anticancer screen, dose series, 48 h
KM12 colon = test system: KM12 colon
UACC-257 melanoma = test system: UACC-257 melanoma
RPMI-8226 leukemia = test system: RPMI-8226 leukemia
DU-145 prostate = test system: DU-145 prostate
SK-OV-3 ovarian = test system: SK-OV-3 ovarian
A549 NSCLC = test system: A549 NSCLC
SK-MEL-28 melanoma = test system: SK-MEL-28 melanoma
MDA-N = test system: MDA-N
CAKI-1 renal = test system: CAKI-1 renal
SW-620 colon = test system: SW-620 colon
HCT-15 colon = test system: HCT-15 colon
BT-549 breast = test system: BT-549 breast
LOX IMVI melanoma = test system: LOX IMVI melanoma

`CC(C)(C)OC(=O)NCCC1CNc2ccccc21` (stereo not given) gave a TGI (KM12 colon) greater than 100 µM, a TGI (UACC-257 melanoma) greater than 100 µM and a TGI (RPMI-8226 leukemia) greater than 100 µM. The TGI (DU-145 prostate) was greater than 100 µM, the TGI (SK-OV-3 ovarian) was greater than 100 µM and the TGI (A549 NSCLC) was greater than 100 µM. For the same compound, the TGI (SK-MEL-28 melanoma) was greater than 100 µM, the TGI (MDA-N) was greater than 100 µM and the TGI (CAKI-1 renal) was greater than 100 µM. The TGI (SW-620 colon) was greater than 100 µM, the TGI (HCT-15 colon) was greater than 100 µM and the TGI (BT-549 breast) was greater than 100 µM.
Compound `COC(=O)[C@@H]1C[C@]2(Br)c3ccccc3N(S(=O)(=O)c3ccccc3)[C@@H]2N1C(=O)OC` has a TGI (KM12 colon) greater than 100 µM, a TGI (UACC-257 melanoma) of 14.6 µM and a TGI (RPMI-8226 leukemia) greater than 100 µM. It also gave a TGI (DU-145 prostate) greater than 100 µM, a TGI (SK-OV-3 ovarian) greater than 100 µM and a TGI (A549 NSCLC) greater than 100 µM. The TGI (SK-MEL-28 melanoma) was greater than 100 µM, the TGI (MDA-N) was greater than 100 µM and the TGI (CAKI-1 renal) was greater than 100 µM. For the same compound, the TGI (SW-620 colon) was greater than 100 µM, the TGI (HCT-15 colon) was greater than 100 µM and the TGI (BT-549 breast) was greater than 100 µM.
With `Cc1oc2nc(N(C)C)nc(NN)c2c1C` the TGI (KM12 colon) was greater than 100 µM, the TGI (UACC-257 melanoma) was greater than 100 µM and the TGI (RPMI-8226 leukemia) was greater than 100 µM. The TGI (DU-145 prostate) was greater than 100 µM, the TGI (A549 NSCLC) was greater than 100 µM and the TGI (SK-MEL-28 melanoma) was greater than 100 µM. For the same compound, the TGI (CAKI-1 renal) was greater than 100 µM, the TGI (SW-620 colon) was greater than 100 µM and the TGI (HCT-15 colon) was greater than 100 µM. For the same compound, the TGI (BT-549 breast) was greater than 100 µM.
Compound `CSc1nc(-c2ccccc2)nc(C(C#N)C#N)n1` has a TGI (LOX IMVI melanoma) greater than 100 µM, a TGI (KM12 colon) greater than 100 µM and a TGI (UACC-257 melanoma) greater than 100 µM. For the same compound, the TGI (RPMI-8226 leukemia) was greater than 100 µM, the TGI (DU-145 prostate) was greater than 100 µM and the TGI (SK-OV-3 ovarian) was greater than 100 µM. It also gave a TGI (A549 NSCLC) greater than 100 µM, a TGI (SK-MEL-28 melanoma) greater than 100 µM and a TGI (MDA-N) greater than 100 µM. The TGI (CAKI-1 renal) was greater than 100 µM, the TGI (SW-620 colon) was greater than 100 µM and the TGI (HCT-15 colon) was greater than 100 µM.
For `CC(C)=NOC(=O)OC[C@H]1O[C@@H](n2cnc3c(N)ncnc32)C(O)C1O` (stereo not given in full), the TGI (LOX IMVI melanoma) was greater than 100 µM, the TGI (KM12 colon) was greater than 100 µM and the TGI (RPMI-8226 leukemia) was greater than 100 µM. For the same compound, the TGI (DU-145 prostate) was greater than 100 µM, the TGI (SK-OV-3 ovarian) was greater than 100 µM and the TGI (A549 NSCLC) was greater than 100 µM. The TGI (SK-MEL-28 melanoma) was greater than 100 µM, the TGI (MDA-N) was greater than 100 µM and the TGI (SW-620 colon) was greater than 100 µM. The TGI (HCT-15 colon) was greater than 100 µM and the TGI (BT-549 breast) was greater than 100 µM.
With `c1cc(C2=NCCO2)c2ccsc2c1` the TGI (LOX IMVI melanoma) was greater than 100 µM, the TGI (KM12 colon) was greater than 100 µM and the TGI (UACC-257 melanoma) was greater than 100 µM. For the same compound, the TGI (RPMI-8226 leukemia) was greater than 100 µM, the TGI (DU-145 prostate) was greater than 100 µM and the TGI (SK-OV-3 ovarian) was greater than 100 µM. It also gave a TGI (A549 NSCLC) greater than 100 µM, a TGI (SK-MEL-28 melanoma) greater than 100 µM and a TGI (MDA-N) greater than 100 µM. For the same compound, the TGI (CAKI-1 renal) was greater than 100 µM, the TGI (SW-620 colon) was greater than 100 µM and the TGI (HCT-15 colon) was greater than 100 µM.
`Cc1c(C(=O)Nc2ccccc2)nnn1-c1ccnc2cc(C(F)(F)F)ccc12` was tested, and the TGI (LOX IMVI melanoma) was 78.1 µM, the TGI (KM12 colon) was greater than 100 µM and the TGI (UACC-257 melanoma) was greater than 100 µM. It also gave a TGI (DU-145 prostate) greater than 100 µM, a TGI (SK-OV-3 ovarian) greater than 100 µM and a TGI (A549 NSCLC) greater than 100 µM. For the same compound, the TGI (SK-MEL-28 melanoma) was greater than 100 µM, the TGI (MDA-N) was greater than 100 µM and the TGI (CAKI-1 renal) was greater than 100 µM. For the same compound, the TGI (SW-620 colon) was greater than 100 µM, the TGI (HCT-15 colon) was greater than 100 µM and the TGI (BT-549 breast) was greater than 100 µM.
`CCO[C@H]1O[C@@H]2OC3(C)CCC4[C@H](C)CCC([C@H]1C)[C@]42OO3` (stereo not given in full) showed a TGI (LOX IMVI melanoma) greater than 100 µM, a TGI (KM12 colon) greater than 100 µM and a TGI (RPMI-8226 leukemia) greater than 100 µM. The TGI (DU-145 prostate) was greater than 100 µM, the TGI (SK-OV-3 ovarian) was greater than 100 µM and the TGI (A549 NSCLC) was greater than 100 µM. The TGI (SK-MEL-28 melanoma) was greater than 100 µM, the TGI (MDA-N) was greater than 100 µM and the TGI (CAKI-1 renal) was greater than 100 µM. The TGI (SW-620 colon) was greater than 100 µM, the TGI (HCT-15 colon) was greater than 100 µM and the TGI (BT-549 breast) was greater than 100 µM.
For `O=C1c2cn[nH]c2N=C(Nc2ccccc2)C1N=Cc1ccc([N+](=O)[O-])cc1` (stereo not given), the TGI (LOX IMVI melanoma) was greater than 10 µM, the TGI (KM12 colon) was greater than 10 µM and the TGI (UACC-257 melanoma) was greater than 10 µM. The TGI (DU-145 prostate) was greater than 10 µM, the TGI (A549 NSCLC) was greater than 10 µM and the TGI (MDA-N) was greater than 10 µM. For the same compound, the TGI (BT-549 breast) was greater than 10 µM.

Reference: PubChem BioAssay (NCI)
